Measured values from patent publication US11185544B2, “Formulations of 4-methyl-5-(pyrazin-2-yl)-3H-l,2-dithiole-3-thione, taste-modified formulations, and methods of making and using same” (ST IP Holding AG, priority 2016, dated 2021).

Columns and labels:
[1] = tested on: reactive oxygen species (ROS) in HGEPp cells; conditions: H2O2-treated cells, 0.3 mM for 4 h
Description: 2. measure the effect of recrystallized oltipraz amd formulated oltipraz on hydroxyl, peroxyl and other reactive oxygen species within HGEPp cells, using Cell Biolabs' OxiSelect™ Intracellular ROS Assay Kit. This assay employs the cell-permeable fluorogenic probe 2′,7′-dichlorodihydrofluorescein diacetate (DCFH-DA) which diffuses into cells and is deacetylated by cellular esterases to a nonfluorescent DCFH which is then rapidly oxidized to highly fluorescent 2′,7′-dichlorodihydrofluorescein (DCF) by ROS.
Pooled primary HGEPps were propagated in CnT-Prime epithelial culture medium provided by CellnTec on 100 mm petri dishes coated with 30 mg/ml Type I rat tail collagen (BD Biosciences) diluted in Dulbecco's phosphate-buffered saline (DPBS). […] The cells were harvested when they reached 70-90% confluency as observed by light microscopy. For routine cultivation, the medium was changed every 3 days. […]
Oxidative Stress Measurement ROS Assay (OxiSelect Kit) • 1. […] Once the HGEPp cells were cultured and ready on a microplate, the media was removed from all the wells and discarded. […] Fluorescence was read on a Fluorescence Plate Reader after 1 hour. […] Transferred 150 μL of the mixture to a fresh 24-well plate for fluorescence measurements at 530 nm. […]
Intracellular ROS was measured using a Spectramax M3 microplate reader.

[2] = tested on: primary human gingival epithelial cells (HGEPp); assay: cells; conditions: Epithelial cell, 4 h, read-out: IC50 of H2O2 in HGEPp cells
Protocol: Pooled primary HGEPps were propagated in CnT-Prime epithelial culture medium provided by CellnTec on 100 mm petri dishes coated with 30 mg/ml Type I rat tail collagen (BD Biosciences) diluted in Dulbecco's phosphate-buffered saline (DPBS). […] The cells were harvested when they reached 70-90% confluency as observed by light microscopy. For routine cultivation, the medium was changed every 3 days. For both the cell viability and ROS assays, the cells from passages 3-7 were seeded at 5×0 3, 2.5×10 4, 5×0 4 cells/cm 2 density to grow cell monolayers in 24-well flat-bottomed tissue culture plates and acclimated overnight at 37° C. […]
Cell Survival Assay (TACS MTT Kit) • 1. Plate cell concentration was selected to be 6.25×10^5/ml to yield an OD absorbance within the linear portion of the control curve. • 2. Once the HGEPp cells were cultured and ready on the microplate, the media was removed from all the wells and discarded. […] Removed the plate cover and measured the absorbance of the wells, including the blanks at 570 nm. • 8. Determined the average values from triplicate readings after subtracting the average value for the blanks.
HGEPp cells were exposed to different concentrations of H2O2 for 4 h to examine H2O2-induced oxidative stress. The cells were exposed to 0-0.6 mM H2O2 for 4 h and cell viability was evaluated using the TACS MTT Cell Proliferation Assay Kit. […]

IC50 [2]: 300 µM
Structure (SMILES): OO [Sample H2O2, hydrogen peroxide]
ROS levels compared to normal control cells (100%) [1]: 128%
